In US9862684B2, “Modulation of K2P channels” (The Regents of the University of California, priority 2013, dated 2018):
Like-named read-outs stand apart in the source and are kept apart here.

What was measured:
Format in all cases: cell-based, Murine
K2P2.1 (TREK-1) = biological target: T1, K2P2.1 (TREK-1) (Mus musculus, UniProt P97438); experiment: Two-electrode voltage clamp of Xenopus oocytes expressing K2P2.1 (TREK-1)
T1 construct: expressed in transfected cells; host or cells: Xenopus oocytes (cRNA injection, pGEMHE/pMO)
T1 sequence (P97438 1-411 isoform P97438-2): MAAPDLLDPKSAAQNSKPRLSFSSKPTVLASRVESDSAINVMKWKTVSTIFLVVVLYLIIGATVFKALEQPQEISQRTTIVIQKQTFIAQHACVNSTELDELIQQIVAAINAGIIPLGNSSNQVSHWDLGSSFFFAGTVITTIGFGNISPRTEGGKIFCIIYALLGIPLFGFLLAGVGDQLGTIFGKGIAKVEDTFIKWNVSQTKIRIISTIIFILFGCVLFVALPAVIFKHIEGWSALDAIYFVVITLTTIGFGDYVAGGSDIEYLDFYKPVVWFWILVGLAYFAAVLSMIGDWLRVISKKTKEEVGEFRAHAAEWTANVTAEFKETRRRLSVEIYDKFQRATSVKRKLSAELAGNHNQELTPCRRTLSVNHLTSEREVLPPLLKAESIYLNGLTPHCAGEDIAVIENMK
Experimental: Two-electrode voltage clamp recordings were performed from defolliculated stage V-VI Xenopus oocytes 24-48 hours after injection with 0.015-6.0 ng cRNA, using microelectrodes (0.3-3.0 MΩ) filled with 3M KCl. […] Recording solutions (mM): 2K (96 NaCl, 2 KCl, 1.8 CaCl2, 2 MgCl2), 90K (90 KCl, 8 NaCl, 1.8 CaCl2, 2 MgCl2), were buffered 5 mM HEPES pH 7.4. For K2P recordings, currents we elicited by a 1 second long ramp from −150 to +50 mV from a holding potential of −80 mV (2K), or −100 to +50 mV from a holding potential of 0 mV (90K). For KCNQ2 recordings, currents were elicited by a step protocol from −120 to 60 mV, in 20 mV increments, from a holding potential of −80 mV. […] Currents were elicited by a 1 second long ramp from −150 to +50 mV from a holding potential of −80 mV.

K2P2.1 (TREK-1)-3G [1] = biological target: T2, K2P2.1 (TREK-1)-3G (Mus musculus, UniProt P97438, I307G/D309G); experiment: Two-electrode voltage clamp, Xenopus oocytes, triple glycine mutant uncoupling Ct; details: 3G mutant
T2 sequence (P97438 1-426 I307G/D309G): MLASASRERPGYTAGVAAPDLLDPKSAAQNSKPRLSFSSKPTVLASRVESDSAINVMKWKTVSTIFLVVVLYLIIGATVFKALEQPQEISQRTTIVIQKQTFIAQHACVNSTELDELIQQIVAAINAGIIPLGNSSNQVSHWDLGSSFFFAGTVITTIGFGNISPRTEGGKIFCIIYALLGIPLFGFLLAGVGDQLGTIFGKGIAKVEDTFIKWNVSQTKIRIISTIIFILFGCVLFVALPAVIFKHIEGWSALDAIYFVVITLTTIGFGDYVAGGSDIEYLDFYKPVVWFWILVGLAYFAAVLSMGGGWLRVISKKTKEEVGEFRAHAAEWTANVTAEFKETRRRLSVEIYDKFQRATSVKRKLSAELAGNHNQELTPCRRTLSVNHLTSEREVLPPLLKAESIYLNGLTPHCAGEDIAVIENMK
Experimental: (§1) I-V curves were measured by two-electrode voltage clamp of Xenopus oocytes in b, 90 mM [K^+]o. or c-e, 2 mM [K^+]o. […] Data (were measured at 20 mV (90 mM [K^+]o) or 0 mV (2 mM [K^+]o), normalized to basal channel activity, and fitted to the Hill equation. Error bars indicate s.e., n≧6, N≧2.
(§2) Murine K2P channels were cloned into pGEMHE/pMO {Bagriantsev, 2011}, IRES-GFP (Invitrogen), or pYES2-MET25 (high copy 2μ, URA3) {Minor, 1999} for expression in oocytes, HEK-293T cells, and yeast, respectively, using standard molecular biology procedures, and verified by DNA sequencing.
(§3) Two-electrode voltage clamp recordings were performed from defolliculated stage V-VI Xenopus oocytes 24-48 hours after injection with 0.015-6.0 ng cRNA, using microelectrodes (0.3-3.0 MΩ) filled with 3M KCl. Data was acquired using the GeneClamp 500B (MDS Analytical Technologies) amplifier controlled by the pClamp software (Molecular Devices), and digitized at 1 kHz using Digidata 1332A (MDS Analytical Technologies). Recording solutions (mM): 2K (96 NaCl, 2 KCl, 1.8 CaCl2, 2 MgCl2), 90K (90 KCl, 8 NaCl, 1.8 CaCl2, 2 MgCl2), were buffered 5 mM HEPES pH 7.4. For K2P recordings, currents we elicited by a 1 second long ramp from −150 to +50 mV from a holding potential of −80 mV (2K), or −100 to +50 mV from a holding potential of 0 mV (90K). […]

K2P2.1 (TREK-1)-3G [2] = biological target: T3, K2P2.1 (TREK-1)-3G (Mus musculus, UniProt P97438, D309G/I307G); experiment: as above; details: 3G mutant
T3 sequence (P97438 1-426 I307G/D309G): T2 sequence (P97438 1-426 I307G/D309G)
Experimental: as §1, §2, §3

## CC1(C)c2cc(Cl)ccc2N(CCc2nnn[nH]2)c2ccc(Cl)cc21 [ML67-33, 2,7-dichloro-9,9-dimethyl-10-[2-(1H-tetrazol-5-yl)ethyl]acridine]
K2P2.1 (TREK-1); Xenopus oocytes, 2 mM [K+]o pH 7.4, data at 0 mV, normalized to basal activity, Hill fit, read-out: EC50
  EC50: 36.3 ± 1.04 µM
K2P2.1 (TREK-1); Xenopus oocytes, at 100 μM (FIG. 4, 7 legends), marked ** in Table 1, footnote not given
  Emax (fold) at 100 μM: 11.1±0.4 fold
K2P2.1 (TREK-1); Xenopus oocytes, fold over basal current, no concentration stated
  Emax (fold): 11.1 ± 0.4 fold
K2P2.1 (TREK-1); high extracellular potassium, 90 mM [K+]o
  response of K2P2.1 (TREK-1) to ML67-33 with C-type gate stabilized (in words): reduced the response
K2P2.1 (TREK-1); spans oocytes and HEK cells, read-out: concentration at which the compound acts (EC50 range)
  EC50: 9.7 to 36.3 µM
K2P2.1 (TREK-1)-3G [1]
  Emax (fold): 12.9±1.0 fold
K2P2.1 (TREK-1)-3G [2]
  EC50: 49.4 ± 0.1 µM
